Like-named read-outs stand apart in the source and are kept apart here.
Key:
P450 4A11 [1] = target: T1, P450 4A11 (Homo sapiens, UniProt Q02928); format: binding; parameters: made in house; host or cells: E. coli; details: for substrate transfer rate from FABP1 to P450 4A11: FABP1, DAUDA, palmitate 0.2 μM each, P450 4A11 2 μM
T1 sequence (Q02928 5-519): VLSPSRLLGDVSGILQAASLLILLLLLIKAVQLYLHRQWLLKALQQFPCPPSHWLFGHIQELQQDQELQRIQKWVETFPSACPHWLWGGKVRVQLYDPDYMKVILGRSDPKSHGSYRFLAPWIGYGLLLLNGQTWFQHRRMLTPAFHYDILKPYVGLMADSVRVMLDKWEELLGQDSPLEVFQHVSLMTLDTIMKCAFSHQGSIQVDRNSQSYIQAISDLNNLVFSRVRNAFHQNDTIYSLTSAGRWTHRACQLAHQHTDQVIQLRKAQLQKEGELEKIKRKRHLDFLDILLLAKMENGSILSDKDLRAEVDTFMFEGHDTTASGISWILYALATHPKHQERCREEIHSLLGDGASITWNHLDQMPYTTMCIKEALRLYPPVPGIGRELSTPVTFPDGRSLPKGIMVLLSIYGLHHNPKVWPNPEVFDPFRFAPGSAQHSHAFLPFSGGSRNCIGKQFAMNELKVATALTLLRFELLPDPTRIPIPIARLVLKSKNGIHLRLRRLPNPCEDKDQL
Experimental: Set up as a reverse experiment of the fluorescence displacement assay (Fig. 5), this experiment involved mixing equimolar concentrations (0.2 μM) of DAUDA, FABP1, and palmitate to form a solution ( FDS↔FD+S↔FS+D ) with low fluorescence (Fig. 5A). That solution was then rapidly mixed with an excess of P450 4A11 (2 μM), and the gain of fluorescence was monitored (i.e., as substrate was transferred from FABP1 to P450, either as FDS + P450 → FD + P450-S or as FS + P450 + D → P450-S + F + D → FD; Fig. 5A). As expected, we observed a weak but reproducible stimulation of fluorescence in this experiment (n = 6 shots), and the data were fit to single exponential equation yielding a substrate transfer rate (k6) of 4.2 ± 0.9 s^−1 (Fig. 11).
Figure 11 Rate of palmitate transfer (ktransfer) from FABP1 to P450 4A11. A stoichiometric mixture of FABP1, DAUDA, and palmitate (0.2 μM) was mixed with P450 4A11 (2 μM), and the gain of fluorescence (>420 nm) was monitored (i.e., as FDS + E → FD + ES, Fig. 5A). Six traces were averaged and fit to a single exponential equation, yielding a rate of 4.2 ± 0.9 s^−1. […] replicate experiments were averaged to generate the trace. DAUDA, 11-dansylaminoundecanoic acid; FABP1, fatty acid binding protein.
To estimate the rate of transfer of palmitate from FABP1 to P450 4A11, a mixture of palmitate, FABP1, and DAUDA (0.4 μM, each component) was mixed against a solution of P450 4A11 (4 μM). All components were diluted twofold to their final concentrations in the mixing process. The experiment was performed with stopped-flow parameters identical to the experiments of FABP1 with lipids (aforementioned), and data were processed in the same manner, with the exception that a smoothing factor of 0.4 was applied to the data (in Microsoft Excel) prior to curve fitting.

P450 4A11 [2] = target: T1, P450 4A11; test: Equilibrium binding titrations of P450 4A11 with lipids (heme Soret spectral shift); details: for P450 heme Soret spectral shift induced: P450 4A11
Experimental: Affinity of palmitate and 16-OH palmitate for P450 4A11 (1 μM) was assessed by monitoring the blue shift (from ∼420 nm to ∼390 nm) of the P450 heme Soret band as a substrate binds and displaces the sixth axial heme ligand (H2O) to yield pentacoordinated heme (“type I” shift) ([26]).
P450 4A11 (1 μM) was titrated with (A) palmitate and (B) 16-OH palmitate in a 1.0 cm pathlength cell. Difference plots were calculated from absorbance maxima (∼390 nm) and minima (∼420 nm), and the data were fit to a hyperbolic equation. The insets in each panel are the difference spectra between a cuvette that received the lipid substrate and a cuvette that received solvent alone. Each data point corresponds to one independent replicate.
Equilibrium binding titrations with P450 4A11 (1 μM) were performed in buffer (100 mM potassium phosphate [pH 7.4]) as described previously ([44], [56]). Briefly, a baseline was first acquired on an OLIS-Cary 14 spectrophotometer set to scan from 350 to 500 nm in 1 cm glass cuvettes. […] The cuvettes were mixed with a plumper after additions, and spectra were recorded. The spectra were exported into Microsoft Excel software, and the absorbance values at 418 nm were subtracted from those at 390 nm and the values were plotted as a function of lipid concentration.
Titration of P450 4A11 with DAUDA. The P450 concentration was 1 µM and the DAUDA concentration was varied using a geometric series from 1 nM to 10 µM. […] The increase in absorbance in the UV region is due to the strong chromophore in the DAUDA dansyl moiety (Fig. S8).

Row | Compound | rate of transfer to P450 4A11 relative to transfer to phospholipid membranes (P450 4A11 [1]) | substrate transfer rate from FABP1 to P450 4A11 (P450 4A11 [1]) | P450 heme Soret spectral shift induced (P450 4A11 [2]) | Kd (P450 4A11 [2]; read-out: Kd for P450 4A11, P450 4A11 1 μM, 100 mM potassium phosphate pH 7.4) | Kd (P450 4A11 [2]) | P450 heme Soret spectral shift induced (P450 4A11 [2]; listed as Palmitate) | P450 heme Soret spectral shift induced (P450 4A11 [2]; listed as palmitate)
1 | FABP1: delipidated recombinant liver fatty acid binding protein with C-terminal hexahistidine tag | ~1000 fold | ~5 s⁻¹ | – | – | – | – | –
2 | O=C(O)CCCCCCCCCCCCCCCO [16-OH Palmitate (C16), 16-hydroxypalmitate] | – | – | reverse type I shift | 270 ± 40 nM | – | – | –
3 | CCCCCCCCCCCCCCCC(=O)O [Palmitate (C16), palmitate] | – | 4.2 ± 0.9 s⁻¹ | – | – | 5200 ± 1600 nM | classical type I spectral shift | type I
